From PMC6627067, “Probing Multi-Target Action of Phlorotannins as New Monoamine Oxidase Inhibitors and Dopaminergic Receptor Modulators with the Potential for Treatment of Neuronal Disorders” (Marine Drugs, 2019) come the findings set out here.

In assay [1] the target is T1, hMAO-A (Homo sapiens, UniProt P21397).
T1 sequence (P21397 1-527): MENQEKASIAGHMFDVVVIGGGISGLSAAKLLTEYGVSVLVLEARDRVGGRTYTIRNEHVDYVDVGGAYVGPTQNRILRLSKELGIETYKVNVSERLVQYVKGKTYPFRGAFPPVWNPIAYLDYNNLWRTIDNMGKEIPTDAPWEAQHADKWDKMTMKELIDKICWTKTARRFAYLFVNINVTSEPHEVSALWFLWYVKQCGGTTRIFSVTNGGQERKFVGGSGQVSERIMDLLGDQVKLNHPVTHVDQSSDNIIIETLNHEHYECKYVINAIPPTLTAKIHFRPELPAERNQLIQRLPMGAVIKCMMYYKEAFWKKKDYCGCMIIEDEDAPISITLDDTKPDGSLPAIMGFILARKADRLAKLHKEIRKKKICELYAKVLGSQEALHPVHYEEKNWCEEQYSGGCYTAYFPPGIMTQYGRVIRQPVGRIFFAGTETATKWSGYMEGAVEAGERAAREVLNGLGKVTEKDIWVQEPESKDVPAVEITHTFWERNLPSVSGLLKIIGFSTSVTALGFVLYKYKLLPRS
Kind of assay: hMAO-A inhibition, chemiluminescent MAO-Glo assay and kinetic analysis. The format is biochemical.

The target of assay [2] is hV1A (AVPR1A) (Homo sapiens, UniProt P37288). Put plainly: GPCR cell-based functional assay, intracellular Ca2+ level, V1A. The conditions noted are these: for % Stimulation of control agonist response, hV1A: agonist effect at 100 µM; for inhibition at 100 µM: antagonist effect at 100 µM, read-out: % Inhibition of control agonist response, hV1A.
Sequence of hV1A (AVPR1A) (P37288 whole entry): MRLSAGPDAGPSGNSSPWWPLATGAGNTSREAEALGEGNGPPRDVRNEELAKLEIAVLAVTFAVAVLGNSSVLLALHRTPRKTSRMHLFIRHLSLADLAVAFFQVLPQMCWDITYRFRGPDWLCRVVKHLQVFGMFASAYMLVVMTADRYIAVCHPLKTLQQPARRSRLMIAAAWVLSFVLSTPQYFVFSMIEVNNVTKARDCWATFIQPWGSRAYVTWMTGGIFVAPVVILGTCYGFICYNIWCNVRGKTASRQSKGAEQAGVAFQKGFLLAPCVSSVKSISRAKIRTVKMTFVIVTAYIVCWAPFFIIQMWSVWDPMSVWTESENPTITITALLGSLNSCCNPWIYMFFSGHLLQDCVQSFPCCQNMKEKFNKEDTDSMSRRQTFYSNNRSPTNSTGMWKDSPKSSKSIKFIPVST
Assay [3] addresses hNK1 (TACR1) (Homo sapiens, UniProt P25103). Kind of assay: GPCR cell-based functional assay, intracellular Ca2+ level, NK1. The conditions noted are these: for % Stimulation of control agonist response, hNK1: agonist effect at 100 µM; for inhibition at 100 µM: antagonist effect at 100 µM, read-out: % Inhibition of control agonist response, hNK1.
In assay [4] the target is T2, hD3 (DRD3) (Homo sapiens, UniProt P35462). The settings on record: for % Stimulation of control agonist response, hD3: agonist effect at 100 µM.
T2 sequence (P35462 whole entry): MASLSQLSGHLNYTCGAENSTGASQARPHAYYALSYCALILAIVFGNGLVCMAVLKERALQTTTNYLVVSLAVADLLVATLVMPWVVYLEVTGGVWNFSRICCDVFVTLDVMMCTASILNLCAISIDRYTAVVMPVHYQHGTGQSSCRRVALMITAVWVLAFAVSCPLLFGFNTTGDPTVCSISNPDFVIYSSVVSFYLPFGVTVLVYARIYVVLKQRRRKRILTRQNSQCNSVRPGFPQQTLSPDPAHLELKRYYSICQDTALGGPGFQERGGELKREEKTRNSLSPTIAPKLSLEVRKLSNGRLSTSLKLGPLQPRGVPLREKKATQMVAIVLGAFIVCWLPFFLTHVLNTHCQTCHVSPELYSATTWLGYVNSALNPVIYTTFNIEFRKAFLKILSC
Assay [5] has as its target T3, hMAO-B (Homo sapiens, UniProt P27338).
T3 sequence (P27338 1-520): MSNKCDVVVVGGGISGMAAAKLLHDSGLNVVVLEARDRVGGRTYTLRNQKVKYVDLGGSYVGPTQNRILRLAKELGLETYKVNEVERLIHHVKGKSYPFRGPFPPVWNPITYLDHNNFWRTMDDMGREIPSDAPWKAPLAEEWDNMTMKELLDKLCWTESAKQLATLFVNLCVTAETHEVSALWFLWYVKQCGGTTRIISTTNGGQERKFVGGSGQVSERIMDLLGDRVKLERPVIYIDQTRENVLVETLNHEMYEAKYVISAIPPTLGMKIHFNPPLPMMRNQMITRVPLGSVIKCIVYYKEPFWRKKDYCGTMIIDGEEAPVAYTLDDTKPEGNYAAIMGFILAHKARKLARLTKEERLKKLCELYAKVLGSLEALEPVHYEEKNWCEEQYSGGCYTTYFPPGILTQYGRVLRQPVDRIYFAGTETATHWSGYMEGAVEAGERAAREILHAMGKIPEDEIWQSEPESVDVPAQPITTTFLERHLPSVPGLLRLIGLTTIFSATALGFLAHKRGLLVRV
Put plainly: hMAO-B inhibition, chemiluminescent MAO-Glo assay and kinetic analysis. The format is biochemical. The conditions noted are these: for IC50 / IC50 hMAO-B: recombinant hMAO-B, mean ± SD, n = 3.

Assay [6] addresses T4, hD1 (DRD1) (Homo sapiens, UniProt P21728). Put plainly: cell-based. The conditions noted are these: read-out: % Inhibition of control agonist response, hD1.
For assay [7], the target named is T5, hD4 (DRD4) (Homo sapiens, UniProt P21917).
T5 sequence (P21917 1-419): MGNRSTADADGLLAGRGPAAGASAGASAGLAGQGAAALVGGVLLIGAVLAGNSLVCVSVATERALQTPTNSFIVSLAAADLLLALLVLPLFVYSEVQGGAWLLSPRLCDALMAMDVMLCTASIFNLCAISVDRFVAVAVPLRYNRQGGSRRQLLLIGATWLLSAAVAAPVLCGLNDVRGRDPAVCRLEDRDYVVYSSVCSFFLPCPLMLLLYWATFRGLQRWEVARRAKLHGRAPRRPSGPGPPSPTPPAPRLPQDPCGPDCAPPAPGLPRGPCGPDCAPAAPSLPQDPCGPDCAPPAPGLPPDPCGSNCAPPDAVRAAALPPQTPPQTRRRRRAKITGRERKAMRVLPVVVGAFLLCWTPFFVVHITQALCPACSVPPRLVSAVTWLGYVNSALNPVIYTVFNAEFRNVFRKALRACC
The settings on record: for % Stimulation of control agonist response, hD4: agonist effect at 100 µM; for inhibition at 100 µM: read-out: % Inhibition of control agonist response, hD4.

Assay [8] concerns the target T2, hD3 (DRD3). Kind of assay: cell-based. The conditions noted are these: for inhibition at 100 µM: read-out: % Inhibition of control agonist response, hD3.
In assay [9] the target is T4, hD1 (DRD1). The settings on record: agonist effect at 100 µM.
Assay [10] deals with T6, h5-HT1A (HTR1A) (Homo sapiens, UniProt P08908).
T6 sequence (P08908 1-422): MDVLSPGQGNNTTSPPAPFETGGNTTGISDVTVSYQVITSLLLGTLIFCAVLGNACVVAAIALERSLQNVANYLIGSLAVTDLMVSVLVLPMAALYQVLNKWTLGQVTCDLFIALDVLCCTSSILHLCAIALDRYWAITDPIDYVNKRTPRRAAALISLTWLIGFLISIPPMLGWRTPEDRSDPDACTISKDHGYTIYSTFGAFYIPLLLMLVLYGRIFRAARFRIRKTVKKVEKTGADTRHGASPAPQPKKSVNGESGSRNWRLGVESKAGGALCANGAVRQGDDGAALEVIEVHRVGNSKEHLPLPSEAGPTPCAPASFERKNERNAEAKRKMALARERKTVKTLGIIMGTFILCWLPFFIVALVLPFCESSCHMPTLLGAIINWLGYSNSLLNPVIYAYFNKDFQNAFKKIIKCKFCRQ
Kind of assay: GPCR cell-based functional assay, intracellular Ca2+ level, 5-HT1A. The settings on record: for % Stimulation of control agonist response, h5-HT1A: agonist effect at 100 µM; for inhibition at 100 µM: antagonist effect at 100 µM, read-out: % Inhibition of control agonist response, h5-HT1A.

In assay [11] the target is T7, hM5 (CHRM5) (Homo sapiens, UniProt P08912).
T7 sequence (P08912 1-532): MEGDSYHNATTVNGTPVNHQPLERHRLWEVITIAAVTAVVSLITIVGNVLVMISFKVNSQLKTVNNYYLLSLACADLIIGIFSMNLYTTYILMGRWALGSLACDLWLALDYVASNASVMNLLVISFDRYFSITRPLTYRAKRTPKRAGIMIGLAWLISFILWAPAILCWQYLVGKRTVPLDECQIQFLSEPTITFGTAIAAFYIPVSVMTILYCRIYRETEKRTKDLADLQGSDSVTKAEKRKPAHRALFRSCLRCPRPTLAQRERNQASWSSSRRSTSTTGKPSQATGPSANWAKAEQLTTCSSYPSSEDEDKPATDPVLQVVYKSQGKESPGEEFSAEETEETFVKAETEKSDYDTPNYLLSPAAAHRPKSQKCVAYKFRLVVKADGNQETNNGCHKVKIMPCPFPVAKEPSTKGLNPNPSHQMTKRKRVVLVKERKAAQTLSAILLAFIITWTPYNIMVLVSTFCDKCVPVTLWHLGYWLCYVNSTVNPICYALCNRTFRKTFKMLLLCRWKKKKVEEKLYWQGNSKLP
Kind of assay: GPCR cell-based functional assay, intracellular Ca2+ level, M5. The settings on record: for % Stimulation of control agonist response, hM5: agonist effect at 100 µM; for inhibition at 100 µM: antagonist effect at 100 µM, read-out: % Inhibition of control agonist response, hM5.

Where [12] appears, read: recombinant hMAO-A, mean ± SD, n = 3.
The mark [13] stands for this setting: recombinant hMAO-A, mean ± SD, n = 3, read-out: IC50 hMAO-A.
Where [14] appears, read: concentration-dependent stimulation, mean ± SD.
Where [15] appears, read: Kiu from secondary plot of 1/Vmaxapp versus concentration.
Where [16] appears, read: Lineweaver-Burk plots, NC = noncompetitive.

Several values for one entry are separate records, joined by “and”; a condition that tells them apart may be missing. Equal entries are not always repeated. Where two headings read alike, the source gives them in different places.

T4 sequence (P21728 whole entry): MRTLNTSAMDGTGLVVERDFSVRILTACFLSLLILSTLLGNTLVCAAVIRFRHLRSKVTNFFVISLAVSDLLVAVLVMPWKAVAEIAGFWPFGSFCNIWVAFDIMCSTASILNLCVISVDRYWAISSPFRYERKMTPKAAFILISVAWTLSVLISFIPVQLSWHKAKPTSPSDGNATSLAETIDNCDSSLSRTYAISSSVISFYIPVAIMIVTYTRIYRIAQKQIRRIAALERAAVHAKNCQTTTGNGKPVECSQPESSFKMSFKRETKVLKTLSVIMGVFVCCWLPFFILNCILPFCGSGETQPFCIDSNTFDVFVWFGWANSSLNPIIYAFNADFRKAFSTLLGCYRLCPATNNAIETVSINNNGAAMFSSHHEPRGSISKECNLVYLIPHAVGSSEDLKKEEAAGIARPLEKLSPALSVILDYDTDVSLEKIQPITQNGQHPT
Sequence of hNK1 (TACR1) (P25103 whole entry): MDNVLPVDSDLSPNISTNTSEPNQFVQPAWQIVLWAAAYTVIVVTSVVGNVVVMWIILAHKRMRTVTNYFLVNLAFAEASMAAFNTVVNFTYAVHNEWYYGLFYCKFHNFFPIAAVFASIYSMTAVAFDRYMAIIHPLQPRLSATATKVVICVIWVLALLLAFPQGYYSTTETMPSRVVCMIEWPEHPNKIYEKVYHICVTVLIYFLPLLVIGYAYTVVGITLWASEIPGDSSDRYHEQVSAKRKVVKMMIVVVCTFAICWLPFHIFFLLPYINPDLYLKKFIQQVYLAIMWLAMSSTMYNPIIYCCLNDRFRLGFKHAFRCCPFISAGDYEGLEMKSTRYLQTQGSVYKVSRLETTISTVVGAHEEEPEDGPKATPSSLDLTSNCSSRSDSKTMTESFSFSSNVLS

In general, IC50 refers to the concentration needed to halve the response being measured. In general, inhibition refers to the relative decrease from the control value, in per cent. Consider `Oc1cc(O)cc(O)c1` [Phloroglucinol, phloroglucinol], for which the “IC50 hMAO-A” value in assay [1] (setting [12]) is listed as “no inhibitory activity”. The IC50 in assay [1] (setting [13]) and in assay [5] was more than 900 µM throughout. In addition, in assay [2], the “% Stimulation of control agonist response, hV1A” value is given as −0.80 ± 0.57 ^C %. The inhibition at 100 µM in assay [2] was 13.9%; in assay [3], -8.05%; in assay [6] it was 4.95%; in assay [7], -7.05%; in [8], -6.75%; in assay [10], -4.15%. Further, in assay [11], the inhibition at 100 µM was -21.6%. For the same compound, the “% Stimulation of control agonist response, hNK1” value in [3] is on record as −0.85 ± 0.21 ^C %. Moreover, in [4], the “% Stimulation of control agonist response, hD3” value is −0.15 ± 14.07 ^C %. Besides, in assay [4] (setting [14]), the “EC50, dopamine D3 agonist effect” value was “No activity”. In addition, the “IC50 hMAO-B” value in [5] was “no inhibitory activity”. For the same compound, the “% Stimulation of control agonist response, hD4” value in [7] is reported as −9.95 ± 14.50 ^C %. Besides, in assay [7] (setting [14]), the “EC50, dopamine D4 agonist effect” value was “No activity”. The “% Stimulation of control agonist response, hD1” value in assay [9] is recorded as 0.20 ± 3.82 ^A %. The “% Stimulation of control agonist response, h5-HT1A” value in assay [10] was 0.10 ± 0.28 ^B %. In addition, the “% Stimulation of control agonist response, hM5” value in assay [11] is recorded as −6.05 ± 0.78 ^B %.

Usually Ki stands for the equilibrium dissociation constant of an inhibitor or competing ligand from its target. Low values mean higher affinity, high ones lower affinity. The EC50 is the midpoint of the concentration-response curve. With `Oc1cc(O)cc(Oc2c(O)cc(O)c3c2Oc2c(O)cc4oc5c(Oc6cc(O)cc(O)c6)c(O)cc(O)c5c4c2O3)c1` [PFF-A, phlorofucofuroeckol-A], the Ki came to 5.18 µM in [1] (setting [15]) and 2690 nM in assay [5] (setting [15]). In assay [1] (setting [16]), the “Inhibition type hMAO-A” value is listed as “noncompetitive”. Further, the “SI (selective index)” value in assay [1] (ratio of hMAO-A IC50/hMAO-B IC50) came out at 1.89. Moreover, the IC50 turned out to be 9.22 ± 0.19 µM in [1] (setting [13]) and 4.89 ± 0.32 µM in assay [5]. In assay [2], the “% Stimulation of control agonist response, hV1A” value is 38.45 ± 7.14 ^B %. Also, the inhibition at 100 µM in [2] was 52.9%; in [3] it was 88.2%; in assay [6], 81.4%; in [7], -26.1%; in [8] it was -15.2%; in assay [10], 62.5%. Moreover, in assay [11], the inhibition at 100 µM amounted to 56%. Further, the “% Stimulation of control agonist response, hNK1” value in [3] was 67.65 ± 9.26 ^A %. Besides, the “% Stimulation of control agonist response, hD3” value in assay [4] was 98.57 ± 2.14% and 98.57 ± 2.14 ^A %. In assay [5] (setting [16]), the “Inhibition type hMAO-B” value was “noncompetitive”. Besides, the values for the EC50 in [7] and in assay [8] were 23.5 ± 1.55 µM and 19.2 ± 0.48 µM, respectively. Also, the “% Stimulation of control agonist response, hD4” value in [7] is 98.50 ± 12.50% and 98.50 ± 12.50 ^A %. Also, the “% Stimulation of control agonist response, hD1” value in [9] is 0.25 ± 3.18 ^A %. For the same compound, in assay [10], the “% Stimulation of control agonist response, h5-HT1A” value is recorded as 1.65 ± 0.49 ^A %. In [11], the “% Stimulation of control agonist response, hM5” value is 29.20 ± 10.75 ^A %.

As to `FC(F)(F)c1cc(CO[C@H]2CCCN[C@H]2c2ccccc2)cc(C(F)(F)F)c1` [L-733,060, reference compound], the IC50 in [3] (positive control, read-out: IC50 of standard antagonist, hNK1) was 1.6 nM.

`Oc1cc(O)c2oc3cc(O)c4oc5cc(O)cc(O)c5oc4c3oc2c1` [Dioxinodehydroeckol, dioxinodehydroeckol]: the IC50 in [1] is more than 300 µM. For the same compound, the “IC50 hMAO-A” value in [1] (setting [12]) was “no inhibitory activity”. Also, in [5], the concentration for half-maximal inhibition (IC50) was more than 300 µM and the “IC50 hMAO-B” value is “no inhibitory activity”.
